Biological target: T1, MAGL (Homo sapiens, UniProt Q99685)
T1 sequence (Q99685 1-303): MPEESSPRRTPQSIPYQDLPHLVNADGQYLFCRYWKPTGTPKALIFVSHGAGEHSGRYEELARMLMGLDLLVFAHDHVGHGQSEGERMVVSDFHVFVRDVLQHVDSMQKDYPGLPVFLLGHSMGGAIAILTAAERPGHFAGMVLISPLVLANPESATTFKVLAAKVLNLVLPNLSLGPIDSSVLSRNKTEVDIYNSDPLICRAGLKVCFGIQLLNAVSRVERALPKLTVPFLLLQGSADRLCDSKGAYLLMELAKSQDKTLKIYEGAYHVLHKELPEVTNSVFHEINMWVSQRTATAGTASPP
Assay: 2-AG assay (MAGL inhibitory activity, hydrolysis of 2-arachidonoylglycerol followed by mass spectrometry)
Format: biochemical
Details: 50 pM MAGL, 8 μM 2-arachidonoylglycerol, 15 min preincubation, 30 min incubation at RT
Description: Compounds were profiled for MAGL inhibitory activity by determining the enzymatic activity by following the hydrolysis of the natural substrate 2-arachidonoylglycerol (2-AG) resulting in arachidonic acid, which can be followed by mass spectrometry. This assay is hereinafter abbreviated “2-AG assay”.
The 2-AG assay was carried out in 384 well assay plates (PP, Greiner Cat #784201) in a total volume of 20 μL. Compound dilutions were made in 100% DMSO (VWR Chemicals 23500.297) in a polypropylene plate in 3-fold dilution steps to give a final concentration range in the assay from 12.5 μM to 0.8 pM. 0.25 μL compound dilutions (100% DMSO) were added to 9 μL MAGL in assay buffer (50 mM TRIS (GIBCO, 15567-027), 1 mM EDTA (Fluka, 03690-100 mL), 0.01% (v/v) Tween. After shaking, the plate was incubated for 15 min at RT. To start the reaction, 10 μL 2-arachidonoylglycerol in assay buffer was added. The final concentrations in the assay was 50 pM MAGL and 8 μM 2-arachidonoylglyerol. After shaking and 30 min incubation at RT, the reaction was quenched by the addition of […] of ACN containing 4 μM of d8-arachidonic acid. The amount of arachidonic acid was traced by an online SPE system (Agilent Rapidfire) coupled to a triple quadrupole mass spectrometer (Agilent 6460). A C18 SPE cartridge (G9205A) was used in an ACN/water liquid setup. The mass spectrometer was operated in negative electrospray mode following the mass transitions 303.1→259.1 for arachidonic acid and 311.1→267.0 for d8-arachidonic acid. The activity of the compounds was calculated based on the ratio of intensities [arachidonic acid/d8-arachidonic acid].

| Molecule | IC50 |
| --- | --- |
| 4-[(E)-2-[3-[(7R,9aR)-7-(4-Chlorophenyl)-1,3,4,6,7,8,9,9a-octahydropyrido[1,2-a]pyrazine-2-carbonyl]-2-bromo-phenyl]vinyl]-N-methyl-benzamide and 3-[(E)-2-[4-[(7R,9aR)-7-(4-chlorophenyl)-1,3,4,6,7,8,9,9a-octahydropyrido[1,2-a]pyrazine-2-carbonyl]phenyl]vinyl]-2-bromo-N-methyl-benzamide [Example 31] | 0.00372 µM |
| COc1cccc(C(=O)N2CCN3C[C@@](O)(CC(C)C)CC[C@@H]3C2)c1Cl (racemic) [Example 24, (2-Chloro-3-methoxyphenyl)-[rac-(7R,9aS)-7-hydroxy-7-(2-methylpropyl)-3,4,6,8,9,9a-hexahydro-1H-pyrido[1,2-a]pyrazin-2-yl]methanone] | 0.626 µM |
| COc1cccc(C(=O)N2CCN3C[C@@](O)(C(F)(F)F)CC[C@@H]3C2)c1Cl (racemic) [Example 26, (2-Chloro-3-methoxyphenyl)-[rac-(7R,9aR)-7-hydroxy-7-(trifluoromethyl)-3,4,6,8,9,9a-hexahydro-1H-pyrido[1,2-a]pyrazin-2-yl]methanone] | 0.678 µM |
| COc1cccc(C(=O)N2CCN3CC(O)(c4ccc(C(F)(F)F)nc4)CCC3C2)c1Cl (racemic) [Example 72, (2-chloro-3-methoxyphenyl)-[rac-(7R,9aS)-7-hydroxy-7-[6-(trifluoromethyl)pyridin-3-yl]-3,4,6,8,9,9a-hexahydro-1H-pyrido[1,2-a]pyrazin-2-yl]methanone] | 3.49 µM |
| O=C(c1cccc(OC(F)F)c1Cl)N1CCN2C[C@@](O)(c3ccc(C(F)(F)F)cn3)CC[C@@H]2C1 (stereo in doubt) [Example 37, [(7R,9aR)-7-hydroxy-7-[5-(trifluoromethyl)pyridin-2-yl]-3,4,6,8,9,9a-hexahydro-1H-pyrido[1,2-a]pyrazin-2-yl]-[2-chloro-3-(difluoromethoxy)phenyl]methanone] | 0.898 µM |

Continued, values first:

| IC50 | Molecule |
| --- | --- |
| 0.548 µM | COc1cccc(C(=O)N2CCN3C[C@@](O)(C4CCCC4)CC[C@@H]3C2)c1Cl (racemic) [Example 25, (2-chloro-3-methoxyphenyl)-[rac-(7R,9aS)-7-cyclopentyl-7-hydroxy-3,4,6,8,9,9a-hexahydro-1H-pyrido[1,2-a]pyrazin-2-yl]methanone] |
| 0.0724 µM | CC1(O)CCN(c2cccc(C(=O)N3CCN4C[C@@](O)(c5ccc(Cl)cc5)CC[C@@H]4C3)c2Cl)C1 (mixture of isomers) [Example 50, [2-chloro-3-(3-hydroxy-3-methylpyrrolidin-1-yl)phenyl]-[rac-(7R,9aS)-7-(4-chlorophenyl)-7-hydroxy-3,4,6,8,9,9a-hexahydro-1H-pyrido[1,2-a]pyrazin-2-yl]methanone] |
| 0.278 µM | COc1cccc(C(=O)N2CCN3CC(O)(c4ccc(C(F)(F)F)nc4)CCC3C2)c1Cl (racemic) [Example 71, (2-chloro-3-methoxyphenyl)-[rac-(7R,9aR)-7-hydroxy-7-[6-(trifluoromethyl)pyridin-3-yl]-3,4,6,8,9,9a-hexahydro-1H-pyrido[1,2-a]pyrazin-2-yl]methanone] |
| 0.327 µM | O=C(c1cccc(OC(F)F)c1Cl)N1CCN2C[C@](O)(c3ccc(C(F)(F)F)cn3)CC[C@H]2C1 (stereo in doubt) [Example 38, [(7S,9aS)-7-hydroxy-7-[5-(trifluoromethyl)pyridin-2-yl]-3,4,6,8,9,9a-hexahydro-1H-pyrido[1,2-a]pyrazin-2-yl]-[2-chloro-3-(difluoromethoxy)phenyl]methanone] |
| 0.00448 µM | COc1cccc(C(=O)N2CCN3C[C@@](O)(c4ccc(F)c(Cl)c4)CC[C@@H]3C2)c1Cl [Example 1, [(7S,9aR)-7-(3-Chloro-4-fluorophenyl)-7-hydroxy-3,4,6,8,9,9a-hexahydro-1H-pyrido[1,2-a]pyrazin-2-yl]-(2-chloro-3-methoxyphenyl)methanone] |
